Consider 15 molecules from patent US3968102A, “S-substituted-2-thioadenosines” (Kohjin Co., Ltd., priority 1974, dated 1976).

Where two headings read alike, the source gives them in different places.

Series [1] concerns rabbit platelet-rich plasma (collagen-induced platelet aggregation). The series can be described thus: Inhibition of collagen-induced platelet aggregation in rabbit platelet-rich plasma. The format is cell-based. The conditions noted are these: 3 minute incubation; for inhibition at 10 µM / inhibition at 100 µM: Oryctolagus cuniculus, Platelet, 0.05 h; for inhibition at 10 µM: compound 10^-5 M.

Series [2] has as its system rabbit platelet-rich plasma (ADP-induced platelet aggregation). The series can be described thus: Inhibition of 10^-5 M ADP-induced platelet aggregation in rabbit platelet-rich plasma. In kind it is cell-based. Particulars: for inhibition at 10 µM / inhibition at 100 µM: Oryctolagus cuniculus, Platelet, 0.05 h; for inhibition at 10 µM: compound 10^-5 M; for inhibition at 100 µM: read-out: Inhibition (%) 10^-5 M ADP-Induced Aggregation.

A further series concerns platelet aggregation. The conditions noted are these: cited from earlier work.
A further series in a line: pKa. In kind it is physicochemical.
The subject of series [3] is platelet-rich plasma (platelet aggregation). The series can be described thus: Persistence of platelet aggregation inhibitory activity on incubation with platelet-rich plasma. The format is cell-based, rabbit. The method, then: The platelet aggregation inhibitory activity of representative compounds of the formula (I) were determined in terms of the percent inhibitory activity against 10-^5 M adenosine-5'-diphosphate (hereinafter referred to as "ADP")-induced or collagen-induced platelet aggregation in rabbit platelet-rich plasma according to the procedure described by G. V. R. Born and M. J. Cross in Journal of Physiology, Vol. 168, p. 178 (1963). […]

Where [4] appears, read: solvent DMSO, 3 minute incubation.
[5] abbreviates: compound 10^-4 M, solvent DMSO, 3 minute incubation.
The mark [6] stands for this setting: compound 10^-4 M, solvent PSS, 3 minute incubation.
The mark [7] stands for this setting: J. Med. Chem., Vol. 16, No. 12, 1381-1388 (1973).

For orientation: inhibition means the drop in the measured response relative to a control, in per cent. The term pKa denotes the pH at which an ionisable group is half protonated. Read a low pKa as a group that gives up its proton readily.

With `Cc1ccccc1Sc1nc(N)c2ncn([C@@H]3O[C@H](CO)[C@@H](O)[C@H]3O)c2n1` [2-(o-Tolyl)thioadenosine], the figures for the inhibition at 10 µM in series [1] (solvent DMSO) and in series [2] (setting [4]) were 57% and 61%, respectively.

In the case of `Nc1nc(Sc2ccc([N+](=O)[O-])cc2)nc2c1ncn2[C@@H]1O[C@H](CO)[C@@H](O)[C@H]1O` [2-(p-Nitrophenyl)thioadenosine], the inhibition at 100 µM was 81% in series [1] (compound 10^-4 M, solvent DMSO) and 92% in series [2] (setting [5]).

Regarding `Nc1nc(SC2C3CC4CC(C3)CC2C4)nc2c1ncn2[C@@H]1O[C@H](CO)[C@@H](O)[C@H]1O` (stereo partly drawn) [2-(β-Adamantyl)thioadenosine], the inhibition at 100 µM in series [1] (compound 10^-4 M, solvent DMSO) came out at 72%; in series [2] (setting [5]), 95%. Moreover, the inhibition at 10 µM is 61% in series [1] (solvent DMSO) and 72% in series [2] (setting [4]).

For `Nc1nc(SCCO)nc2c1ncn2[C@@H]1O[C@H](CO)[C@@H](O)[C@H]1O` [2-(β-Hydroxyethyl)thioadenosine], the inhibition at 100 µM amounted to 30% in series [1] (compound 10^-4 M, solvent PSS) and 52% in series [2] (setting [6]).

For `Nc1nc(SC2CC3CCC2C3)nc2c1ncn2[C@@H]1O[C@H](CO)[C@@H](O)[C@H]1O` (stereo partly drawn) [2-(β-Norbornyl)thioadenosine], the inhibition at 100 µM in series [1] (compound 10^-4 M, solvent DMSO) stood at 69%; in series [2] (setting [5]), 89%. The inhibition at 10 µM stood at 51% in series [1] (solvent DMSO) and 62% in series [2] (setting [4]).

Take `Nc1nc(Sc2cccnc2)nc2c1ncn2[C@@H]1O[C@H](CO)[C@@H](O)[C@H]1O` [2-(β-Pyridyl)thioadenosine]: the “Inhibition (%) Collagen-Induced Aggregation” value in series [1] (compound 10^-4 M, solvent PSS) is 52%. In addition, the “Inhibition (%) 10^-5 M ADP-Induced Aggregation” value in series [2] (setting [6]) is reported as 61%.

Take `Nc1nc(SCCCO)nc2c1ncn2[C@@H]1O[C@H](CO)[C@@H](O)[C@H]1O` [2-(γ-Hydroxypropyl)thioadenosine]: the inhibition at 100 µM in series [1] (compound 10^-4 M, solvent PSS) stood at 52%; in series [2] (setting [6]), 58%.

Turning to `CSc1nc(N)c2ncn([C@@H]3O[C@H](CO)[C@@H](O)[C@H]3O)c2n1` [2-Methylthioadenosine, reference compound], the inhibition at 100 µM was 25% in series [1] (compound 10^-4 M, solvent PSS) and 12% in series [2] (setting [6]).

On to `Nc1nc(Sc2ccccc2)nc2c1ncn2[C@@H]1O[C@H](CO)[C@@H](O)[C@H]1O` [2-Phenylthioadenosine], for which the inhibition at 100 µM in series [1] (compound 10^-4 M, solvent DMSO) came out at 82%; in series [2] (setting [5]), 98%. Moreover, the inhibition at 10 µM came to 58% in series [1] (solvent DMSO) and 62% in series [2] (setting [4]).

In the case of `CCCSc1nc(N)c2ncn([C@@H]3O[C@H](CO)[C@@H](O)[C@H]3O)c2n1` [2-Propylthioadenosine, reference compound], the inhibition at 100 µM in series [2] (setting [6]) is 16%.

As to `Nc1nc(S)nc2c1ncn2[C@@H]1O[C@H](CO)[C@@H](O)[C@H]1O` [2-Thioadenosine], in series [1] (compound 10^-4 M, solvent PSS), the inhibition at 100 µM was 36%. Further, the inhibition at 100 µM in series [2] (setting [6]) came out at 10%. In the series with platelet aggregation (setting [7]), the “inhibitory activity in ADP-induced platelet aggregation” value is “only a weak inhibitory activity” and the “inhibitory activity in collagen-induced platelet aggregation” value was “only a weak inhibitory activity”. The pKa in the series “pKa” was found to be 7.8.

For the molecule `CSc1nc(N)c2ncn([C@@H]3O[C@H](COP(=O)(O)O)[C@@H](O)[C@H]3O)c2n1` [2-methylthioadenosine-5'-monophosphate], in the series with platelet aggregation (in words), the “platelet aggregation inhibitory activity (prior art)” value was “only a weak platelet aggregation inhibitory activity”.

Regarding `Nc1ncnc2c1ncn2[C@@H]1O[C@H](CO)[C@@H](O)[C@H]1O` [Adenosine], the inhibition at 100 µM worked out at 68% in series [1] (compound 10^-4 M, solvent DMSO); 71% in series [1] (compound 10^-4 M, solvent PSS); 76% in series [2] (setting [5]); 80% in series [2] (setting [6]). The inhibition at 10 µM was determined as 51% in series [1] (solvent PSS) and 58% in series [2] (solvent PSS, 3 minute incubation). The “inhibitory activity after 60 minutes of incubation with the platelet-rich plasma” value in series [3] (60 minutes of incubation) was “disappears completely after 60 minutes of incubation”. Also, the “inhibitory activity (control)” value in series [3] (in words, from Table 1) is “fairly potent inhibitory activity”.

Consider `CSc1nc(N)c2ncn([C@@H]3O[C@H](COP(=O)(O)O)[C@@H](O)[C@H]3O)c2n1` [Ammonium 2-Methylthioadenosine-5'-monophosphate, reference compound], for which the inhibition at 100 µM in series [2] was 35%.

Take `Nc1ncnc2c1ncn2[C@@H]1O[C@H](COP(=O)(O)O)[C@@H](O)[C@H]1O` [Ammonium Adenosine-5'-monophosphate, reference compound]: the inhibition at 100 µM in series [2] (setting [6]) was 5%.
